Where a SMILES comes first, the peptide text is derived from it. The star is where a group is joined. Cbz = O=C(OCc1ccccc1)*

The source of these data is publication PMC9515143, “Phosphorylation of Jhd2 by the Ras-cAMP-PKA(Tpk2) pathway regulates histone modifications and autophagy” (Nature Communications, 2022).

For one experiment, the target named is T1, Jhd2-S321A, S340A (Saccharomyces cerevisiae, UniProt P47156, S321A/S340A).
T1 construct: 3xFLAG (C); made in house; host or cells: Saccharomyces cerevisiae BY4741, genomic JHD2 S321A S340A-3xFLAG
Description: Jhd2 protein level in Jhd2-S321A, S340A cells with MG132. The following applies: for Jhd2/GAPDH: Jhd2-S321A,S340A +MG132, Figure 5c. In kind it is cell-based, budding yeast (Saccharomyces cerevisiae). The protocol: (§1) To determine how Tpk2-mediated Jhd2 phosphorylation regulates Jhd2 stability, we treated WT Jhd2 and Jhd2-S321A, S340A cells with MG132, the proteasome inhibitor. […] We also examined Jhd2 in a temperature-sensitive proteasome-deficient mutant (cim3-1), which is defective in ATPase activity of 26 S proteasome.
(§2) Cells were grown in 5 ml YPD or selective medium until OD600 of 0.7–1.0. Cells were harvested and lysed in alkaline lysis buffer (2 M NaOH, 8% 2-mercaptoethanol). After centrifugation, the protein pellet was resuspended in 150 μl 2×SDS-sample buffer. Protein samples were separated by 8–15% SDS-PAGE and transferred to PVDF membrane. The blots were probed with primary antibodies followed by incubation with horseradish peroxidase-labelled IgG secondary antibodies. The protein bands were visualized using the ECL Chemiluminescence Detection Kit (Bio-Rad, 170–5061) and quantified with Image J software (v.1.8.0).

The target of the next experiment is T2, WT Jhd2 (Saccharomyces cerevisiae, UniProt P47156).
T2 construct: 3xFLAG (C); made in house; host or cells: Saccharomyces cerevisiae BY4741, genomic JHD2-3xFLAG::KAN
Description: Jhd2 protein level in WT Jhd2 cells with MG132. Format: cell-based, budding yeast (Saccharomyces cerevisiae). Conditions: for Jhd2/GAPDH: WT +MG132, WT without MG132 = 1, Figure 5c. The protocol: as §1, §2

The next experiment deals with H3K4me3. Description: Western blot of H3K4me3 in yeast cells treated with glucose, 2-DG, FBP or pyruvate. In kind it is cell-based, budding yeast (Saccharomyces cerevisiae). The following applies: for H3K4me3 level after FBP or pyruvate treatment: spheroplasts (Zymolase), different concentrations of FBP or pyruvate, 3 hr.
Text: To examine the effect of glucose on histone modifications, we grew yeast cells in 2% glucose-containing medium (YPD) until log phase. Cells were collected and then grown in the medium containing different concentrations of glucose for 0.5 hr.
PKA is activated by cyclic AMP (cAMP), which binds to its inhibitory subunit, Bcy1 and causes its dissociation (Fig. 1g). We thus examined H3K4me3 in deletion mutants of cAMP phosphodiesterases PDE1 and PDE2, which encode enzymes to hydrolyze cAMP and inactivate PKA[39],[40]. […] To test whether the Ras-cAMP-PKA pathway mediates glucose-induced H3K4me3, we examined H3K4me3 in ras1Δ and ras2Δ mutants. […] Ras1/2 can be activated by glycolysis-derived fructose-1,6-biphosphate (FBP) via Cdc25[6] (Fig. 1g).
To examine the effect of glucose on histone modifications, yeast cells were grown in 2% glucose-containing YPD (Yeast Extract Peptone Dextrose) medium until OD600 of 0.7–1.0. Cells were then collected, washed and resuspended in YP medium for 3 hr followed by treatment with different concentrations of glucose for 0.5 hr. For 1NM-PP1 (MCE, HY-13804) treatment, cells were grown in 2% YPD until OD600 of 0.7–1.0. Cells were then treated with 25 μM 1NM-PP1 for 0.5 hr. For FBP and pyruvate treatment, cells were pre-treated with Zymolase (Mpbio, 08320921) to increase the permeability. In brief, cells were grown in YPD medium until OD600 of 0.7–1.0, centrifuged and resuspended in 1 ml SB buffer (100 mM Sorbitol, 20 mM Tris pH 7.4). 10 μl Zymolase was then added and incubated at 30 °C for 15 min. The spheroplasts were washed and cultured in YPD medium containing different concentrations of FBP and pyruvate for 3 hr.
as §2

For a further experiment, the target named is Rpd3 (UniProt P32561). Description: in vivo co-IP, Western blot. The following applies: reference: WT Jhd2; sites S321,S340.
The target in experiment [1] is histone H3 1-23 (UniProt P61830). Description: biotinylated peptide pull-down, Western blot. Conditions: reference: WT Jhd2; sites S321,S340. A general note: A western blot detects proteins with antibodies after separation by electrophoresis.
The target is the same in experiment [2]. Description: biotinylated peptide pull-down, Western blot. Conditions: reference: WT Jhd2; sites S321,S340. The source holds these as a separate data set.
For experiment [3] the target is unchanged. Briefly: biotinylated peptide pull-down, Western blot. The following applies: reference: WT Jhd2; sites S321,S340. This is another data set of the same source.
In experiment [4] the target is T3, Tpk2-phosphorylated Jhd2-FLAG (S. cerevisiae (budding yeast), UniProt P47156 1-728, phosphoserine at 321 and 340 (by purified Tpk2 in vitro)).
T3 construct: Jhd2 of budding yeast, phosphorylated in vitro by Tpk2 at S321 and S340; also called immobilized phosphorylated Jhd2; not shown: FLAG, C-terminal, kept
T3 sequence (looked up): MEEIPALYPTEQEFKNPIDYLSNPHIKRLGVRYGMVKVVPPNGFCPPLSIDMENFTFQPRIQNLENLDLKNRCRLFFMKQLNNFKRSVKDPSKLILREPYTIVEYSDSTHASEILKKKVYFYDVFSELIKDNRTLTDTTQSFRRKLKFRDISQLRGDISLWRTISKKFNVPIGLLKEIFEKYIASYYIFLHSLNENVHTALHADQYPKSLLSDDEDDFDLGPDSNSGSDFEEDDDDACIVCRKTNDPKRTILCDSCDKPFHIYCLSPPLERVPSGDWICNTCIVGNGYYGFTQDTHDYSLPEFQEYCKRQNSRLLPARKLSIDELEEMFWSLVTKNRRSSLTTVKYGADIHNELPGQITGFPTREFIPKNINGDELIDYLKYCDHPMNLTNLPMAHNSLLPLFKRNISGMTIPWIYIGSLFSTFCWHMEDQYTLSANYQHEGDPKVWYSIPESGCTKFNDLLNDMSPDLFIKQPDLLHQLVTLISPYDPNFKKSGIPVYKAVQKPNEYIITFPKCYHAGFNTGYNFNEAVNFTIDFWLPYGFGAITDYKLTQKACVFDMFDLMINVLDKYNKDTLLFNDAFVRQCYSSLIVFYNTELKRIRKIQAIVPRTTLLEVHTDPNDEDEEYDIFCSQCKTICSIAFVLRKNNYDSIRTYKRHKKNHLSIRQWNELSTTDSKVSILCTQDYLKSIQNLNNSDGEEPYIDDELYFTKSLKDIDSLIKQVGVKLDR
Description: co-IP; in vitro: dephosphorylated Jhd2 immobilized on anti-FLAG beads, incubated with or without purified Tpk2, Tpk2 removed, then incubated with purified Not4. The following applies: both partners purified.

For a further experiment, the target named is T4, Jhd2-FLAG (S. cerevisiae (budding yeast), UniProt P47156 1-728, phosphoserine at 321 and 340 (phosphorylated in vivo by Tpk2; extent not stated)).
T4 construct: Jhd2, JmjC domain-containing H3K4 demethylase of budding yeast; tag integrated at the genomic locus; this is named in the assay format or readout; also called WT Jhd2; FLAG-purified Jhd2; not shown: FLAG, C-terminal, kept
T4 sequence (looked up): T3 sequence (looked up)
Briefly: co-IP; yeast whole cell extract digested with MNase, anti-FLAG M2 agarose 1 hr 4 °C, washed with 350 mM NaCl, 0.1% NP-40, Western blots; WT and tpk2Δ cells. The following applies: partners not purified.

T1 sequence (P47156 whole entry S321A/S340A): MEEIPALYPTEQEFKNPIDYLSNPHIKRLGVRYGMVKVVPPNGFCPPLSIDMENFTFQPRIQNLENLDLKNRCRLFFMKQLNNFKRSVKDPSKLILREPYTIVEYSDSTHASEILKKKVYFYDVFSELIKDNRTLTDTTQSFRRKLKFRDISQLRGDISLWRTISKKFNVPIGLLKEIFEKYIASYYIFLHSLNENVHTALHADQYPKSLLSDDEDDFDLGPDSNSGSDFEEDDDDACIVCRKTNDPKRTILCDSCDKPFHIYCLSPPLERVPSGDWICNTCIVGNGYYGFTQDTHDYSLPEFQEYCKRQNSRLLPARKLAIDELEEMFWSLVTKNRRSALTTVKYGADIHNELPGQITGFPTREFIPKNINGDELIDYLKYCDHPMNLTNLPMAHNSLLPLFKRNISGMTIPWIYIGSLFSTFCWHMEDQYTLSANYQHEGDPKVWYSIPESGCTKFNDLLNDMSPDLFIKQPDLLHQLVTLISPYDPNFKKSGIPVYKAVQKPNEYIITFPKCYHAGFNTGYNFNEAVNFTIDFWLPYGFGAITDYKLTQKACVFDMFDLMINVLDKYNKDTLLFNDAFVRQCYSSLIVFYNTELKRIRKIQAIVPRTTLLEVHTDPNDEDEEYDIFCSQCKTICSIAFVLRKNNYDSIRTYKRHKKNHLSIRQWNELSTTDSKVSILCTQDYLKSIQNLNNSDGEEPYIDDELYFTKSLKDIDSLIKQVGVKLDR

In the case of `CC(C)C[C@@H](C=O)NC(=O)[C@H](CC(C)C)NC(=O)[C@H](CC(C)C)NC(=O)OCc1ccccc1` [MG132] (Cbz-Leu-Leu-Leu-aldehyde), the Jhd2/GAPDH at Jhd2-S321A, S340A (WT without MG132 = 1, Jhd2-S321A,S340A without MG132 = 1.51305, replicate 4) is 2.104; on Jhd2-S321A, S340A (WT without MG132 = 1, Jhd2-S321A,S340A without MG132 = 1.6488, replicate 2), 1.451; on Jhd2-S321A, S340A (WT without MG132 = 1, Jhd2-S321A,S340A without MG132 = 1.64948, replicate 1) it was 1.2682; on Jhd2-S321A, S340A (WT without MG132 = 1, Jhd2-S321A,S340A without MG132 = 1.95118, replicate 3), 2.131; at WT Jhd2 (replicate 1) it was 1.233; at WT Jhd2 (replicate 2), 1.396. Further, the values for the Jhd2/GAPDH at WT Jhd2 (replicate 3) and at WT Jhd2 (replicate 4) were 1.451 and 1.135, respectively. Moreover, at Jhd2-S321A, S340A (MG132, Western blot), the “Jhd2 protein level, Jhd2-S321A, S340A” value is reported as “had no significant effect on Jhd2-S321A, S340A protein level”. Further, at WT Jhd2 (MG132, Western blot), the “Jhd2 protein level, WT Jhd2” value is given as “significantly increased WT Jhd2 protein levels”.
Regarding `O=C(COP(=O)(O)O)[C@@H](O)[C@H](O)[C@H](O)COP(=O)(O)O` [FBP, fructose-1,6-biphosphate], the “H3K4me3 level after FBP or pyruvate treatment” value with H3K4me3 is listed as “increased H3K4me3 in a dose-dependent manner”.
With `CC(=O)C(=O)O` [pyruvate], the “H3K4me3 level after FBP or pyruvate treatment” value with H3K4me3 is recorded as “FBP but not pyruvate treatment increased H3K4me3”.
In the case of “Jhd2 (from UniProt P47156) Jhd2-S321A, S340A”, the “binding against the reference” value with Rpd3, with histone H3 1-23 [1], in the experiment with histone H3 1-23 [2] and with histone H3 1-23 [3] was “stronger” in each case.
Take `O=CC[C@@H](O)[C@H](O)[C@H](O)CO` [2-DG, 2-Deoxy-D-glucose]: the “H3K4me3 level after blocking glycolysis” value in the experiment with H3K4me3 (2-DG) is recorded as “significantly reduced H3K4me3”.

B1: Not4 (enzyme, S. cerevisiae (budding yeast), UniProt P34909 1-587, looked up)
chain: MMNPHVQENLQAIHNALSNFDTSFLSEDEEDYCPLCIEPMDITDKNFFPCPCGYQICQFCYNNIRQNPELNGRCPACRRKYDDENVRYVTLSPEELKMERAKLARKEKERKHREKERKENEYTNRKHLSGTRVIQKNLVYVVGINPPVPYEEVAPTLKSEKYFGQYGKINKIVVNRKTPHSNNTTSEHYHHHSPGYGVYITFGSKDDAARCIAQVDGTYMDGRLIKAAYGTTKYCSSYLRGLPCPNPNCMFLHEPGEEADSFNKRELHNKQQAQQQSGGTAFTRSGIHNNISTSTAGSNTNLLSENFTGTPSPAAMRAQLHHDSHTNAGTPVLTPAPVPAGSNPWGVTQSATPVTSINLSKNSSSINLPTLNDSLGHHTTPTTENTITSTTTTTNTNATSHSHGSKKKQSLAAEEYKDPYDALGNAVDFLDARLHSLSNYQKRPISIKSNIIDEETYKKYPSLFSWDKIEASKKSDNTLANKLVEILAIKPIDYTASVVQFLQSVNVGVNDNITITDNTKTPTQPIRLQTVSQQIQPPLNVSTPPPGIFGPQHKVPIQQQQMGDTSSRNSSDLLNQLINGRKIIAGN
notes: Not4, E3 ubiquitin ligase of budding yeast; also called purified Not4; source: S. cerevisiae
B1: the binding result (in experiment [4]; with Jhd2-FLAG) was “binds” each time.
